The record followed here is US7893064B2, “Hydrazone derivatives as kinase inhibitors” (Janssen Pharmaceutica NV, priority 2006, dated 2011).

A word on the IC50: it is the point on the concentration scale where inhibition reaches its midpoint.

Assay [1] concerns the target T1, EGFR kinase (GST fusion of intracellular portion of EGFR, NM_005228) (Homo sapiens, UniProt P00533).
T1 construct: The intracellular portion of EGFR started at nucleotide 2189 (corresponding to amino acid 667) and ended at the termination codon; made in house; host or cells: Sf9 insect cells (baculovirus)
Briefly: EGFR Kinase Assay. It counts as biochemical. The settings on record: GSTEGFR, ATP 5 μM, biotinylated polyGluTyr, 33P Flashplate; read-out: EGFR Inhibition (%) IC50. The source says:
The portion was PCR amplified with primers that added the lambda attB sequences to each end, recombined into an entry vector, then into a GST destination vector (as described in Gateway Technologies Manual by Invitrogen Corporation, Carlsbad, Calif.).
The destination vector was recombined in the DH10BAC strain of bacteria to produce a bacmid. The bacmid was transfected into Sf9 cells and the supernatant containing the baculovirus was collected. The GSTEGFR protein was purified using large cultures of Sf9 cells infected with stock virus. After an appropriate period of time, the cells were collected and lysed. The GSTEGFR was then purified from the lysate on Glutathione-Sepharose columns (as described by Amersham Biosciences, Buckinghamshire, United Kingdom).
The free biotin was separated from the biotinylated polyGluTyr on a gel filtration column.
A mixture of a 10× kinase buffer (500 mM Tris at pH 8.0, 100 mM Magnesium Chloride and 1 mM Sodium Vanadate), DTT (1 mM final from 500 mM stock), ATP (5 μM final from 10 mM stock), biotinylated polyGluTyr (10 μg/μL stock), γ-^33P ATP (10 μCi/μL stock) and water was added to each well (90 μL/well) of a Streptavidin Flashplate (Perkin Elmer, Wellesley, Mass.).
Test compound in 100% DMSO (2 μL) was added to the appropriate wells. Diluted GSTEGFR (1:300 dilution in 50 mM Tris at pH 8.0 and 0.1% bovine serum albumin) (10 μL) was added to the wells to initiate the reactions.
The plates were incubated at 30° C. for 1 hr with shaking. The reacted contents were removed and the plates were sequentially washed three times with a 1×PBS stop buffer (300 μL without Magnesium and Calcium) and 100 mM EDTA. After the final wash, the same stop buffer (200 μL) was added to the wells. The plates were then sealed and read on the TopCount scintillation counter.
Test compounds were assayed in triplicate at 16 concentrations at half-log dilutions starting at 200 uM. A maximum and minimum signal for the assay was determined on each plate. The percent inhibition of a test compound was calculated according to the formula
For a series of test concentrations, the IC50 was derived by graphing percent inhibition against the log of the concentrations tested for a given compound.

The target of assay [2] is T2, HER2 (GST-HIS6-Thrombin fusion, amino acids 679 to 1255 of HER-2) (Homo sapiens, UniProt P04626).
T2 construct: GST (N); HIS6 (N); thrombin cleavage site (N); purchased Proqinase, Freiburg, Germany
Put plainly: HER2 Screening Assay. Type of assay: biochemical. To be noted: 10 μM ATP, biotin-poly(GT) 4:1, 33P FlashPlate. The method, then:
A kinase reaction mixture was prepared containing 50 mM Tris-HCl pH=8, 10 mM MgCl2, 0.1 mM […], 1 mM DTT, 10 μM ATP, 0.025 μM biotinylated histone-H1 peptide substrate and 0.2 μCuries per well ^33P-γ-ATP (2000-3000 Ci/mmol). 70 μL of the kinase reaction mixture was dispensed into the well of a streptavidin coated FlashPlate™ (Cat. # SMP103, NEN, Boston, Mass.).
Test compound stock in 100% DMSO (1 μL) was added to the wells resulting in a final concentration of 1% DMSO in the reaction with a 100 μL final reaction volume. Each enzyme was diluted in 50 mM Tris-HCl pH=8.0, 0.1% BSA and 30 μL was added to each well to initiate the reaction. The reaction was incubated for one hour at 30° C. At the end of the 1 hr incubation, the reaction was terminated by aspirating the mixture from the plate and washing the wells twice with PBS containing 100 mM EDTA. The biotinylated peptide substrate became immobilized on the Flashplate™ and the incorporation of ^33P-γ-ATP was measured by reading the plate on a scintillation counter. Inhibition of the enzymatic activity was measured by observing a reduced amount of ^33P-γ-ATP incorporated into the immobilized peptide.
The HER2 construct consisted of a fusion of GST (Glutathione-S-Transferase), HIS6 Thrombin and the nucleotides encoding amino acids 679 to 1255 of HER-2 (Accession number M11730) (Proqinase, Freiburg, Germany). The assay used 200 ng of the N-terminal biotinylated peptide biotin-poly(GT) 4:1 (HER2) per well.
A maximum and minimum signal for the assay was determined on each plate. The percent inhibition of a test compound was calculated according to the formula: […]
For a series of test concentrations, the IC50 was derived by graphing percent inhibition against the log of the concentrations tested for a given compound with results shown in Table 2.

Assay [3] relates to BT474 breast carcinoma cells. Briefly: Cell Proliferation Inhibition Assay (14C-thymidine incorporation), BT-474. Type of assay: cell-based. The settings on record: Homo sapiens, BT-474 cells. The source says: (§1) The ability of a test compound to inhibit unregulated cell proliferation may be determined by measuring incorporation of ^14C-labelled thymidine into newly synthesized DNA within cell lines derived from carcinomas originating from several tissues. Accordingly, the anti-proliferative effect of a compound on cells with a variety of phenotypes may be determined.
(§2) Carcinoma cell lines were obtained from the American Type Culture Collection (ATCC) and include those such as N87 (ATCC Cat. #), SKBR3 breast carcinoma (ATCC Cat. #HTB-30) and BT474 breast carcinoma (ATCC Cat. #HTB-20)
(§3) The carcinoma cells are trypsinized and counted. The cells (3000-8000 count) are added to each well of a 96-well CytoStar tissue culture treated scintillating microplate (Amersham #RPNQ0160) in complete medium (100 μL) and the plate is then incubated in complete medium for 24 hrs at 37° C. in an inert atmosphere containing 5% CO2. Test compound (1 μL) in 100% DMSO is added to the plate test-wells with DMSO only added to control-wells. The plate is incubated in complete medium for a second 24 hr period at 37° C. in an atmosphere containing 5% CO2.
(§4) An aliquot of a solution of Methyl ^14C-thymidine (56 mC/mmol) (NEN #NEC568 or Amersham #CFA532) and complete medium (20 μL to provide 0.2 μCi/well) is then added to each well and the plate is incubated for a third 24 hr period at 37° C. in an atmosphere containing 5% CO2. The plate contents are then discarded, the plate is washed twice with PBS (200 μL) and then PBS (200 μL) is added to each well. The plate is sealed and the degree of methyl ^14C-thymidine incorporation is quantified on a Packard Top Count.
Background: Dividing cells build labelled thymidine or BrdU into new DNA.

Assay [4] has as its system N87 carcinoma cells. Put plainly: Cell Proliferation Inhibition Assay (14C-thymidine incorporation), N87. Type of assay: cell-based.
Description: as §1, §2, §3, §4

Assay [5] has as its system SKBR3 breast carcinoma cells. Briefly: Cell Proliferation Inhibition Assay (14C-thymidine incorporation), SK-BR-3. It counts as cell-based. To be noted: Homo sapiens, SK-BR-3 cells.
Description: as §1, §2, §3, §4

T2 sequence (P04626 679-1255): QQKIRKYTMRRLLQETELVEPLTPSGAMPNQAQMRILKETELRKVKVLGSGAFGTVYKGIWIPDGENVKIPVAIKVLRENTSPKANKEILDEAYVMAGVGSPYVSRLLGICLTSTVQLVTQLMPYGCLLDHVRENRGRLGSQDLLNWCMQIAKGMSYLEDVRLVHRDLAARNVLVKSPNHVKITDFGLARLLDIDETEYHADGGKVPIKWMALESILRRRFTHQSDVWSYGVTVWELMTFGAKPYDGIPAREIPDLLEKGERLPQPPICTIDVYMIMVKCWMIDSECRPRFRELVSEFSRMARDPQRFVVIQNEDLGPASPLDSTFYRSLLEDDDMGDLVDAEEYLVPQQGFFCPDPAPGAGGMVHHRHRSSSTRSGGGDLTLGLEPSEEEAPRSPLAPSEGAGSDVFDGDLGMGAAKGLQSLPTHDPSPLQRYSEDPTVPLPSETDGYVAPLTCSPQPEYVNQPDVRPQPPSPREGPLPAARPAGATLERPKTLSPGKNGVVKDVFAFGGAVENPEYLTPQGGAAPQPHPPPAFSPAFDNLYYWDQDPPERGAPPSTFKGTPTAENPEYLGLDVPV
T1 sequence (P00533 669-1210 limits assumed): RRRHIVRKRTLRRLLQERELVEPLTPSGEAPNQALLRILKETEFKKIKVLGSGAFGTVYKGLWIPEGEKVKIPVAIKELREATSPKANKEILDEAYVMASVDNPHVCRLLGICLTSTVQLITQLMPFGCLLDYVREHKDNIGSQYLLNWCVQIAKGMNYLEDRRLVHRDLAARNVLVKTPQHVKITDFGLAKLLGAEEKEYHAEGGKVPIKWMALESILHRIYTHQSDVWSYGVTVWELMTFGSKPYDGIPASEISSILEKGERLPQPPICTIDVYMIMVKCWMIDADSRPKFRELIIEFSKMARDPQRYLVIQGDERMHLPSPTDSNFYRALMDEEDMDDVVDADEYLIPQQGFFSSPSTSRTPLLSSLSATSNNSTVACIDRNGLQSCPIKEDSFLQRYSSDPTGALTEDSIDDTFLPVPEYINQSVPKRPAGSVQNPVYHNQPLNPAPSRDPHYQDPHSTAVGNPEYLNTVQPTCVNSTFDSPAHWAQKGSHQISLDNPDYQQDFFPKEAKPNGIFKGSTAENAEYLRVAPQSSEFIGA

As for `COC[C@@H]1CCCN1N=Cc1c(N)ncnc1Nc1ccc2c(cnn2Cc2cccc(F)c2)c1` [Cpd 8, N-[1-(3-fluoro-benzyl)-1H-indazol-5-yl]-5-{[(2S)-2-methoxymethyl-pyrrolidin-1-ylimino]-methyl}-pyrimidine-4,6-diamine], the IC50 in assay [1] was 26.5 nM; in assay [2] it was 38.8 nM.

In the case of `Nc1ncnc(Nc2ccc3c(cnn3Cc3cccc(F)c3)c2)c1C=NNCC(F)(F)F` [Cpd 10, N-[1-(3-fluoro-benzyl)-1H-indazol-5-yl]-5-[(2,2,2-trifluoro-ethyl)-hydrazonomethyl]-pyrimidine-4,6-diamine], the IC50 in assay [1] stood at 52.9 nM; in assay [2] it was 19.8 nM.

For `Nc1ncnc(Nc2ccc3c(cnn3Cc3cccc(F)c3)c2)c1C=NN1CCCCC1` [Cpd 3, N-[1-(3-fluoro-benzyl)-1H-indazol-5-yl]-5-(piperidin-1-yliminomethyl)-pyrimidine-4,6-diamine], the IC50 is 18.3 nM in assay [2], 48.5 nM in assay [3], 365 nM in assay [4] and 691 nM in assay [5].

As to `Nc1ncnc(Nc2ccc3c(cnn3Cc3cccc(F)c3)c2)c1C=NN1CCN(CCO)CC1` [Cpd 9, 2-[4-({4-amino-6-[1-(3-fluoro-benzyl)-1H-indazol-5-ylamino]-pyrimidin-5-ylmethylene}-amino)-piperazin-1-yl]-ethanol], the IC50 in assay [1] was found to be 9.77 nM; in assay [2], 8.37 nM; in assay [3], 13.5 nM; in assay [4], 58.4 nM; in assay [5] it was 58.5 nM.

For `CN1CCN(N=Cc2c(N)ncnc2Nc2ccc3c(cnn3Cc3cccc(F)c3)c2)CC1` [Cpd 6, N-[1-(3-fluoro-benzyl)-1H-indazol-5-yl]-5-[(4-methyl-piperazin-1-ylimino)-methyl]-pyrimidine-4,6-diamine], the 50% inhibitory concentration (IC50) turned out to be 15.6 nM in assay [1] and 8.4 nM in assay [2].

Turning to `CNN=Cc1c(N)ncnc1Nc1ccc2c(cnn2Cc2cccc(F)c2)c1` [Cpd 2, N-[1-(3-fluoro-benzyl)-1H-indazol-5-yl]-5-(methyl-hydrazonomethyl)-pyrimidine-4,6-diamine], the values for the 50% inhibitory concentration (IC50) in assay [1] and in assay [2] were 12.4 nM and 83.6 nM, respectively.

Turning to `CN(C)/N=C/c1c(N)ncnc1Nc1ccc2c(cnn2Cc2cccc(F)c2)c1` [Cpd 5, 5-(dimethyl-hydrazonomethyl)-N-[1-(3-fluoro-benzyl)-1H-indazol-5-yl]-pyrimidine-4,6-diamine], the IC50 in assay [1] turned out to be 8.2 nM; in assay [2], 2.4 nM; in assay [3], 63 nM; in assay [4] it was 131 nM; in assay [5], 148 nM.

In the case of `COC[C@H]1CCCN1N=Cc1c(N)ncnc1Nc1ccc2c(cnn2Cc2cccc(F)c2)c1` [Cpd 7, N-[1-(3-fluoro-benzyl)-1H-indazol-5-yl]-5-{[(2R)-2-methoxymethyl-pyrrolidin-1-ylimino]-methyl}-pyrimidine-4,6-diamine], the results for the IC50 in assay [1] and in assay [2] were 31.2 nM and 72.2 nM, respectively.

Turning to `COc1ccc(NN=Cc2c(N)ncnc2Nc2ccc3c(cnn3Cc3cccc(F)c3)c2)cc1` [Cpd 1, N-[1-(3-fluoro-benzyl)-1H-indazol-5-yl]-5-[(4-methoxy-phenyl)-hydrazonomethyl]-pyrimidine-4,6-diamine], the IC50 worked out at 49 nM in assay [1] and 118 nM in assay [2].

In the case of `Nc1ncnc(Nc2ccc3c(cnn3Cc3cccc(F)c3)c2)c1C=NN1CCOCC1` [Cpd 4, N-[1-(3-fluoro-benzyl)-1H-indazol-5-yl]-5-(morpholin-4-yliminomethyl)-pyrimidine-4,6-diamine], the IC50 in assay [1] was determined as 16.5 nM; in assay [2], 6.6 nM; in assay [3] it was 30.5 nM; in assay [4] it was 90.5 nM; in assay [5], 122 nM.
